In brackets after ≈: the same amount, converted by molar mass. Non-standard residues stand in square brackets, D forms with d. Residues, ends and D or L forms follow the SMILES beside them. *: point of attachment. Octanoyl = CCCCCCCC(=O)*; Api = NC1(C(=O)O)CCNCC1; Aib = CC(C)(N)C(=O)O
Columns and labels:
[1] = test system: blood agar plate (Columbia CNA Agar); assay: Hemolysis on blood agar plate; details: 35 ± 2 °C, 24 h; for Hemolysis (d, diameter of hemolysis zone): average of triplicate
Procedure: Hemolysis zones were visually determined and measured. […] For two additional peptides (6 and 15), only a small hemolysis zone (diameter 4–5 mm) was visible, as compared to that of the positive control (Triton X-100, 13 mm).
Briefly, 2 μL of each peptide solution in DMSO (25 mg/mL), corresponding to 50 μg, was spotted on the surface of a blood agar plate (Columbia CNA Agar, Becton Dickinson Italia S.p.A., Florence, Italy). The plate was then incubated at 35 ± 2 °C for 24 h and visually inspected for the presence of hemolysis zones (see Figure S13, Supplementary Material). The experiment was performed in triplicate. Table 2 reports the average value of the diameter of hemolysis zones measured in each individual experiment. Triton X-100 was used as a positive control (diameter of the hemolysis zone: 13 mm), while DMSO was used as a negative control.
Figure S13. Implementation of the hemolysis test as described in Bechlars et al.. After spotting
2 µL (50 µg) of each compound at a random location on the blood agar plate and incubation at 35 ±
2 °C for 24 h, the plates were manually inspected for the presence of hemolysis zones. Triton X-100
and DMSO were used as the positive and negative controls, respectively. Results were interpreted
(1 picture or pasted object on this page, not shown here)

[2] = test system: Staphylococcus aureus ATCC 25923; details: for MIC Sau: MHB, 5 × 10^5 CFU/mL, 18 h, 35 °C, triplicate; for MBC Sau: ATCC 25923, 18 h
From the text: (§1) The antibacterial activity of the peptides was initially assessed on a panel of representative Gram-positive and Gram-negative organisms of high clinical relevance and commonly responsible for bacterial infections in both animals and humans. Bacillus subtilis ATCC 6633 (Bsu) was also included as a rod-shaped model Gram-positive organism. This first panel comprised: Enterococcus faecalis ATCC 29212 (Efa); Streptococcus pyogenes ATCC 12344 (Spy); and Staphylococcus aureus ATCC 25923 (Sau); Gram-negative: Escherichia coli CCUGT (Eco), Klebsiella pneumoniae ATCC 13833 (Kpn), Acinetobacter baumannii ATCC 17978 (Aba), and Pseudomonas aeruginosa ATCC 27853 (Pae) (Table 2). Both the minimum inhibitory concentration (MIC, Table 2) and the minimum bactericidal concentration (MBC, Table S1, Supporting Material) were determined.
(§2) The minimum inhibitory concentration (MIC) and the minimum bactericidal concentration (MBC) of the compounds were determined in triplicate using Mueller–Hinton broth (MHB). […] Therefore, we decided to dissolve all peptides in DMSO to a final concentration of 25 mg/mL, for consistency. The bacteria inoculum was 5 × 10^5 CFU/mL, as recommended by CLSI (Document M07-A10, 2015). […] Reference-type strains, including representatives of both Gram-positive bacteria (Bacillus subtilis ATCC 6633, Enterococcus faecalis ATCC 29212, Staphylococcus aureus ATCC 25923, the methicillin-resistant Staphylococcus aureus ATCC 43300 (MRSA), Streptococcus pyogenes ATCC 12344) and Gram-negative bacteria (Escherichia coli CCUGT, Klebsiella pneumoniae ATCC 13833, Pseudomonas aeruginosa ATCC 27853, and Acinetobacter baumannii ATCC 17978), were acquired from ATCC or CCUG culture collections. Other antibiotic-resistant clinical isolates were present in our collection at the University Teaching Hospital (Azienda Ospedaliero-Universitaria Senese ‘Santa Maria alle Scotte’) in Siena, Tuscany, Italy. Specifically, MDR carbapenem-hydrolyzing class D β-lactamase-producing Acinetobacter baumannii and metallo-β-lactamase-producing Pseudomonas aeruginosa were used in this study (Table 4).

[3] = test system: Pseudomonas aeruginosa ATCC 27853; details: for MIC Pae: MHB, 5 × 10^5 CFU/mL, 18 h, 35 °C, triplicate; for MBC Pae: ATCC 27853, 18 h
From the text: as §1, §2

[4] = test system: Klebsiella pneumoniae ATCC 13833; details: for MIC Kpn: MHB, 5 × 10^5 CFU/mL, 18 h, 35 °C, triplicate; for MBC Kpn: ATCC 13833, 18 h
From the text: as §1, §2

[5] = test system: Streptococcus pyogenes ATCC 12344; details: for MIC Spy: MHB, 5 × 10^5 CFU/mL, 18 h, 35 °C, triplicate; for MBC Spy: ATCC 12344, 18 h
From the text: as §1, §2

Escherichia coli CCUGT = details: 18 h; for MIC Eco: MHB, 5 × 10^5 CFU/mL, 35 °C, triplicate; for MBC Eco: CCUGT
From the text: as §1, §2

[6] = test system: Enterococcus faecalis ATCC 29212; details: for MIC Efa: MHB, 5 × 10^5 CFU/mL, 18 h, 35 °C, triplicate; for MBC Efa: ATCC 29212, 18 h
From the text: as §1, §2

[7] = test system: Bacillus subtilis ATCC 6633; details: for MIC Bsu: MHB, 5 × 10^5 CFU/mL, 18 h, 35 °C, triplicate; for MBC Bsu: ATCC 6633, 18 h
From the text: as §1, §2

[8] = test system: Acinetobacter baumannii ATCC 17978; details: for MIC Aba: MHB, 5 × 10^5 CFU/mL, 18 h, 35 °C, triplicate; for MBC Aba: ATCC 17978, 18 h
From the text: as §1, §2

Compound | Hemolysis (d, diameter of hemolysis zone) ([1]; 50 μg spotted on blood agar) [mm] | MIC Sau [2] [µg/mL] | MIC Pae [3] [µg/mL] | MIC Kpn [4] [µg/mL] | MIC Spy [5] [µg/mL] | MIC Eco (Escherichia coli CCUGT) [µg/mL] | MIC Efa [6] [µg/mL] | MIC Bsu [7] [µg/mL] | MIC Aba [8] [µg/mL] | Hemolysis (class) ([1]; 50 μg peptide (2 μL of 25 mg/mL in DMSO) spotted on blood agar, visual, triplicate) | Hemolytic activity (in words) ([1]; 50 μg spotted on blood agar) | MBC Sau [2] [µg/mL] | MBC Pae [3] [µg/mL] | MBC Kpn [4] [µg/mL] | MBC Spy [5] [µg/mL] | MBC Eco (Escherichia coli CCUGT) [µg/mL] | MBC Efa [6] [µg/mL] | MBC Bsu [7] [µg/mL] | MBC Aba [8] [µg/mL]
Triton X-100 [reference compound] | 13 | – | – | – | – | – | – | – | – | – | – | – | – | – | – | – | – | – | –
CCCCCCCC(=O)N[C@@H](CC(C)C)C(=O)NC(C)(C)C(=O)N[C@@H](CCCCN)C(=O)N[C@@H](CC(C)C)C(N)=O [Peptide 16, 1-Oct-Leu-Aib-Lys-Leu-NH2] (Octanoyl-L[Aib]KL-NH2) | – | > 128 | > 128 | > 128 | > 128 | > 128 | > 128 | > 128 | > 128 | – | – | – | – | – | – | – | – | – | –
CCCCCCCC(=O)NC(C)(C)C(=O)NCC(=O)N[C@@H](CC(C)C)C(=O)NC(C)(C)C(=O)NCC(=O)NCC(=O)N[C@@H](CC(C)C)C(=O)NC1(C(=O)NCC(=O)N[C@H](C(=O)N[C@@H](CC(C)C)C(N)=O)[C@@H](C)CC)CCNCC1 [Peptide 8, 1-Oct-Aib-Gly-Leu-Aib-Gly-Gly-Leu-Api-Gly-Ile-Leu-NH2] (Octanoyl-[Aib]GL[Aib]GGL[Api]GIL-NH2) | 7 | > 128 | > 128 | > 128 | 16 (≈ 14.3 µM) | > 128 | 16 (≈ 14.3 µM) | 32 (≈ 28.6 µM) | > 128 | + | hemolytic activity | – | – | – | – | – | – | – | –
CCCCCCCC(=O)NC(C)(C)C(=O)N[C@@H](CCCCN)C(=O)N[C@@H](CC(C)C)C(=O)N[C@@H](CC(C)C)C(N)=O [Peptide 15, 1-Oct-Aib-Lys-Leu-Leu-NH2] (Octanoyl-[Aib]KLL-NH2) | 5 | 64 (≈ 110 µM) | 64 (≈ 110 µM) | 64 (≈ 110 µM) | 16 (≈ 27.5 µM) | 64 (≈ 110 µM) | 32 (≈ 54.9 µM) | 16 (≈ 27.5 µM) | 64 (≈ 110 µM) | – | – | > 128 | > 128 | > 128 | 16 (≈ 27.5 µM) | > 128 | 32 (≈ 54.9 µM) | 32 (≈ 54.9 µM) | 128 (≈ 220 µM)
CCCCCCCC(=O)NC(C)(C)C(=O)N[C@@H](CCCCN)C(=O)N[C@@H](CCCCN)C(=O)N[C@@H](CC(C)C)C(=O)NC(C)(C)C(=O)NCC(=O)N[C@H](C(=O)N[C@@H](CC(C)C)C(N)=O)[C@@H](C)CC [Peptide 12, 1-Oct-Aib-Lys-Lys-Leu-Aib-Gly-Ile-Leu-NH2] (Octanoyl-[Aib]KKL[Aib]GIL-NH2) | – | 16 (≈ 16.6 µM) | 64 (≈ 66.2 µM) | 64 (≈ 66.2 µM) | 16 (≈ 16.6 µM) | 16 (≈ 16.6 µM) | 32 (≈ 33.1 µM) | 4 (≈ 4.14 µM) | 32 (≈ 33.1 µM) | – | – | 16 (≈ 16.6 µM) | > 128 | > 128 | 16 (≈ 16.6 µM) | 64 (≈ 66.2 µM) | 32 (≈ 33.1 µM) | 16 (≈ 16.6 µM) | 32 (≈ 33.1 µM)

Reference: publication PMC10178204, “Peptaibol Analogs Show Potent Antibacterial Activity against Multidrug Resistant Opportunistic Pathogens” (International Journal of Molecular Sciences, 2023)
